Results taken from publication PMC6629088, “Substituted anthraquinones represent a potential scaffold for DNA methyltransferase 1-specific inhibitors” (PLoS ONE, 2019).
One block for each molecule: values may come before it.

Columns and labels:
Assay type in all cases: biochemical
DNMT3a = molecular target: T1, DNMT3a (Homo sapiens, UniProt Q9Y6K1); test: endonuclease-coupled DNA methylation assay, single concentration […] ([…] activity remaining); settings: read-out: DNMT3a catalytic domain
T1 construct: C-terminal catalytic domain of DNMT3a (amino acids 611–912)
T1 sequence (Q9Y6K1 611-912): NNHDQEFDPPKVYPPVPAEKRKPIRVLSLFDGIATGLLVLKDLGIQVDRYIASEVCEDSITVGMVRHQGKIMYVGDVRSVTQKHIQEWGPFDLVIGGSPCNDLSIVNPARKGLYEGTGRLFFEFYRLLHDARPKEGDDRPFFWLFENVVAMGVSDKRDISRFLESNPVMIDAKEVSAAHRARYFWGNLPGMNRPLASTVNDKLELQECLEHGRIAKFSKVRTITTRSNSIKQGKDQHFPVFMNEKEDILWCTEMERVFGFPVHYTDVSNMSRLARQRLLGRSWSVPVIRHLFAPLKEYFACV

[1] = molecular target: T2, DNA methyltransferase 1 (RFTS(-) DNMT1) (Homo sapiens, UniProt P26358); test: endonuclease-coupled DNA methylation assay (IC50); supported by DSF (+[…] °C), FP DNA competition and detergent test
T2 construct: RFTS(-) DNMT1 (amino acids 621–1616)
T2 sequence (P26358 621-1616): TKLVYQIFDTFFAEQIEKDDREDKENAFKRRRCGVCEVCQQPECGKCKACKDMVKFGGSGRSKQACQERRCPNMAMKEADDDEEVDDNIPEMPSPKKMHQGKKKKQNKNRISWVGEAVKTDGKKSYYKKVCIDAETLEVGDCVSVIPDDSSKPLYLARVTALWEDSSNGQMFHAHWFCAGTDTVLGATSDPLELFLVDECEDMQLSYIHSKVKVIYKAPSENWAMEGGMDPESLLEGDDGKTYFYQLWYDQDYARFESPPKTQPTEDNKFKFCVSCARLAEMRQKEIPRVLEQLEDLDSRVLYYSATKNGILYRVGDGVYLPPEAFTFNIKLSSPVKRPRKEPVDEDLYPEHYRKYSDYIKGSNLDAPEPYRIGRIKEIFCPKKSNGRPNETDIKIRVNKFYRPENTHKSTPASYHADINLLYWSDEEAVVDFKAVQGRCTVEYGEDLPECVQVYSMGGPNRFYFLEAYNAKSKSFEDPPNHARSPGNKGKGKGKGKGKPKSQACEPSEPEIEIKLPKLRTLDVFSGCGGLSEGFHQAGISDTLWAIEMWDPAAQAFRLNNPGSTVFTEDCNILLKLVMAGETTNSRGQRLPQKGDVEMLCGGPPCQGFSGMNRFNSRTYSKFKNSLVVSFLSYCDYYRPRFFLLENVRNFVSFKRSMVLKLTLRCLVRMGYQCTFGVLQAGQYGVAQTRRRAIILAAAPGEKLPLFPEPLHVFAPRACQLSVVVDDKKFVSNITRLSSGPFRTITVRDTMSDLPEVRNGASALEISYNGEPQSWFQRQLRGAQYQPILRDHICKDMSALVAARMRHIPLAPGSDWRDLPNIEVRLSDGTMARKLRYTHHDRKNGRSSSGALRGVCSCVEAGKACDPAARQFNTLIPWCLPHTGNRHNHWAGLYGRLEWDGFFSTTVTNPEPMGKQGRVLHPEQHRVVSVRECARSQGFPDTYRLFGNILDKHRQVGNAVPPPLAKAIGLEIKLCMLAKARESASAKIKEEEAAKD

[2] = molecular target: T2, DNA methyltransferase 1 (RFTS(-) DNMT1); test: endonuclease-coupled DNA methylation kinetics (Ki); IC50 […]; supported by DSF (+[…] °C), FP DNA competition and detergent test

activity at 100 µM (DNMT3a): 32 ± 1%
SMILES: CC(=O)NCCc1ccc(O)c(-c2c(O)c(O)c3c(c2O)C(=O)c2c(cc(O)c(C(=O)O)c2C(=O)O)C3=O)c1 [LCA, laccaic acid A]

IC50 [1]: 59 ± 10 µM
SMILES: Cc1ccc(NC(=O)c2ccc3c(c2O)C(=O)c2ccccc2C3=O)cc1 [A11]

Ki [2]: 13 ± 3 µM
SMILES: COc1cc(C(=O)Nc2ccc3c(c2)C(=O)c2ccccc2C3=O)cc(OC)c1OC [A13]
